Where a name gives a salt, the structure may show the parent alone.
The compounds below were run against T1, Human plasma kallikrein (Homo sapiens, UniProt P03952) (assay: In vitro inhibition of plasma kallikrein (fluorogenic substrate DPro-Phe-Arg-(Rh110)-γGlu-OH)). Conditions: human plasma kallikrein nominally 12 pM, substrate 0.5 μM, 1 hour pre-incubation at room temperature, read after 1 hour (t=60 min).
T1 construct: purchased Kordia (Leiden, Netherlands) batch HPKA 1303
Format: biochemical
Method: In Vitro Inhibition of Plasma Kallikrein
The fluorogenic substrate DPro-Phe-Arg-(Rh110)-γGlu-OH (where DPro is the amino acid d-proline, Rh110 is the fluorophore rhodamine 110 and γGlu is a […] linked to Rh110 via the gamma-carbonyl function; from Biosyntan, Berlin, Germany), being based on the chromogenic substrate described in Gallimore et al (Thromb Res 25, 293-298, 1982), was dissolved in DMSO at 5 mM and stored at −80° C. All other chemicals were of analytical grade.
Human plasma kallikrein was purchased from Kordia (Leiden, Netherlands, batch HPKA 1303) in lyophilized form.
The protein solution was reconstituted from the lyophilisate by addition of deinonized water. The resulting stock solution comprised the protein at a concentration of 0.17 mg/ml in 4 mM sodium acetate/HCl and 150 mM NaCl at pH 5.3. The stock solution was stored in aliquots at −80° C. Enzymatic reactions were conducted in ‘assay buffer’, comprising 50 mM Hepes/NaOH at pH 7.8, 150 mM NaCl, 1 mM EDTA and 0.05% (w/v) CHAPS.
Both, enzyme and substrate were diluted in assay buffer.
All protein and peptide containing solutions were handled in siliconized tubes (Life Systems Design, Merenschwand, Switzerland). The compound solutions as well as the enzyme and the substrate solutions were transferred to 384-well plates (black Cliniplate; cat. no. 95040020 Labsystems Oy, Finland) by means of a CyBi-Well 96-channel pipettor (CyBio AG, Jena, Germany). Plate measurements were conducted by the means of a Safire2 reader (TECAN, Maennedorf, Switzerland). The Safire2 is a monochomator-based instrument and wavelengths of 485 nm and 535 nm were taken for fluorescence excitation and emission acquisition, respectively. The bandwidths were set to 10 nm in both the excitation and the emission path. The fluorescence in each well was excited by three flashes per measurement.
For the determination of IC50 values, the assays were performed at room temperature in 384-well plates with a total assay volume of 25.25 μl per well.
The test compound was dissolved in 90% (v/v) DMSO/water. For the assays, […] of the 90% (v/v) DMSO/water solution or compound solution were added per well, followed by the addition of 12.5 μl protease solution (protease in assay buffer). The final assay concentration of the human plasma kallikrein was nominally 12 pM, the 11 compound concentrations in the dilution series were in the range form 1 nM to 100 μM. After 1 hour of pre-incubation at room temperature, the reactions were started by the addition of 12.5 μl substrate solution (in assay buffer, final assay concentration was 0.5 μM). After the addition of the substrate solution, the final DMSO concentration in the assay was 0.9% (v/v). The effect of the compound on the enzymatic activity was obtained from the linear part of the progress curves and determined after 1 hour (t=60 min). The IC50 value was calculated from the plot of percentage of inhibition vs. inhibitor concentration by a logistics fit according to the following equation:
where y is the %-inhibition at the inhibitor concentration, x. A1 is the lowest inhibition value, i.e. 0%, and A2 the maximum inhibition value, i.e. 100%. The exponent, p, is the Hill coefficient. The curve fitting was conducted with the non-linear regression routine of the analysis software Origin 7.5SR6 (Origin Lab Corporation).

T1 sequence (P03952 391-638 limits assumed): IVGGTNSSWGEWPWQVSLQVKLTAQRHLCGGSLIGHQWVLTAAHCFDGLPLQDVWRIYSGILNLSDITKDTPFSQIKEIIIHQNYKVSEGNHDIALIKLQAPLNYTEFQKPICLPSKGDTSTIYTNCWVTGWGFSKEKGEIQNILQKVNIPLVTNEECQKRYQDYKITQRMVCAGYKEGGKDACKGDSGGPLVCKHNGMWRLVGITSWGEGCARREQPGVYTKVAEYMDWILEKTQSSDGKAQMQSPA
T1 sequence (P03952 20-390 partner limits assumed): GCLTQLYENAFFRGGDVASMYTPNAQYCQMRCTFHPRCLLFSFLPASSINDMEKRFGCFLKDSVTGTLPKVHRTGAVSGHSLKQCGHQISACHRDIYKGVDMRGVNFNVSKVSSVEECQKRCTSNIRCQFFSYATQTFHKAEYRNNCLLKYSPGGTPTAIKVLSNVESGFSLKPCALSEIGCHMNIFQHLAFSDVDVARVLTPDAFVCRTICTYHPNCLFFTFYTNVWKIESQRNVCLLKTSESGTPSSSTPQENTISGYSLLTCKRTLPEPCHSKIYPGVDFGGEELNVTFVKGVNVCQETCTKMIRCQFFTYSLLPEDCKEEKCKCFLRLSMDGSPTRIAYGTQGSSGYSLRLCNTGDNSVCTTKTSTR

Row | SMILES | IC50 [nM]
1 | COc1ccnc(C)c1CNC(=O)c1cn(Cc2ccc3nc(C)ccc3c2)nn1 [Example 2, N-((4-methoxy-2-methylpyridin-3-yl)methyl)-1-((2-methylquinolin-6-yl)methyl)-1H-1,2,3-triazole-4-carboxamide] | 3600
2 | Cc1ccc2cc(Cn3cc(C(=O)NCc4c(C)cc(O)nc4C)nn3)ccc2n1 [Example 3, N-((6-hydroxy-2,4-dimethylpyridin-3-yl)methyl)-1-((2-methylquinolin-6-yl)methyl)-1H-1,2,3-triazole-4-carboxamide] | 573
3 | Cc1ccc2cc(Cn3cc(C(=O)NCc4c(C)cnc(O)c4C)nn3)ccc2n1 [Example 4, N-((2-hydroxy-3,5-dimethylpyridin-4-yl)methyl)-1-((2-methylquinolin-6-yl)methyl)-1H-1,2,3-triazole-4-carboxamide] | 2420
4 | Cc1ccc2cc(Cn3cc(C(=O)NCc4c(C)ccnc4C(F)(F)F)nn3)ccc2n1 [Example 6, N-((4-methyl-2-(trifluoromethyl)pyridin-3-yl)methyl)-1-((2-methylquinolin-6-yl)methyl)-1H-1,2,3-triazole-4-carboxamide] | 2840
5 | O=C(NCc1cccc(Cl)c1)c1cnn(Cc2ccc(Cn3cccn3)cc2)c1 [Example 7, 1-(4-((1H-pyrazol-1-yl)methyl)benzyl)-N-(3-chlorobenzyl)-1H-pyrazole-4-carboxamide] | 1310
6 | C[C@@H](NC(=O)c1cnn(Cc2ccc(Cn3cccn3)cc2)c1)c1cccc(Cl)c1 [Example 8, (R)-1-(4-((1H-pyrazol-1-yl)methyl)benzyl)-N-(1-(3-chlorophenyl)ethyl)-1H-pyrazole-4-carboxamide] | 1620
7 | N=C(N)c1ccc(CNC(=O)c2cnn(Cc3ccc4ccccc4c3)c2)cc1 [Example 9, N-(4-carbamimidoylbenzyl)-1-(naphthalen-2-ylmethyl)-1H-pyrazole-4-carboxamide hydrochloride] | 0.292
8 | N=C(N)c1ccc(CNC(=O)c2cnn(Cc3ccc(Cn4cccn4)cc3)c2)cc1 [Example 10, 1-(4-((1H-pyrazol-1-yl)methyl)benzyl)-N-(4-carbamimidoylbenzyl)-1H-pyrazole-4-carboxamide hydrochloride] | 0.878
9 | Cc1ccc2cc(Cn3cc(C(=O)NCc4ncc(N)nc4C)nn3)ccc2n1 [Example 13, N-((5-amino-3-methylpyrazin-2-yl)methyl)-1-((2-methylquinolin-6-yl)methyl)-1H-1,2,3-triazole-4-carboxamide] | 784

Continued, values first:

Row | IC50 [nM] | SMILES
10 | 10200 | Cc1ccc2cc(Cn3cc(C(=O)NCc4c(C)ccnc4C)nn3)ccc2n1 [Example 1, N-((2,4-dimethylpyridin-3-yl)methyl)-1-((2-methylquinolin-6-yl)methyl)-1H-1,2,3-triazole-4-carboxamide]
11 | 2920 | Cc1cnc2[nH]cc(CNC(=O)c3cn(Cc4ccc5nc(C)ccc5c4)nn3)c2c1 [Example 5, N-((5-methyl-1H-pyrrolo[2,3-b]pyridin-3-yl)methyl)-1-((2-methylquinolin-6-yl)methyl)-1H-1,2,3-triazole-4-carboxamide]
12 | 353 | COc1ccc(Cn2cc(C(=O)NCc3n[nH]c4ccc(Cl)cc34)cn2)cc1 [Example 11, N-((5-chloro-1H-indazol-3-yl)methyl)-1-(4-methoxybenzyl)-1H-pyrazole-4-carboxamide]
13 | 24.3 | Cc1ccc2cc(Cn3cc(C(=O)NCc4c[nH]c5ccc(Cl)cc45)cn3)ccc2n1 [Example 12, N-((5-chloro-1H-indol-3-yl)methyl)-1-((2-methylquinolin-6-yl)methyl)-1H-pyrazole-4-carboxamide]
14 | 42 | COc1ccc(Cl)c(CNC(=O)c2cn(Cc3ccc4nc(C)ccc4c3)nn2)c1F [Example 14, N-(6-chloro-2-fluoro-3-methoxybenzyl)-1-((2-methylquinolin-6-yl)methyl)-1H-1,2,3-triazole-4-carboxamide]
15 | 0.107 | O=C(NCc1n[nH]c2ccc(Cl)cc12)c1cnn(Cc2ccc(Cn3ccccc3=O)cc2)c1 [Example 15, N-((5-chloro-1H-indazol-3-yl)methyl)-1-(4-((2-oxopyridin-1(2H)-yl)methyl)benzyl)-1H-pyrazole-4-carboxamide]
